This is an account of results in patent US20040255720A1, “Metal graphite material and production method thereof” (AISIN SEIKI KABUSHIKI KAISHA, priority 2003, published 2004).

Series [1] in a line: Solubility of each carboxylic acid in methanol. The conditions noted are these: for solubility in methanol (Max): temperature not given.
Series [2] can be described thus: Solubilities of each carboxylic acid in water.
For series [3] the following is noted: 20° C.
The nature of series [4]: Viscosity of binder chemicals. Format: physicochemical. As to conditions: 20° C.
Series [5] is described as follows: Thermal decomposition (temperature vs weight, FIG. 3). The series is classed as physicochemical. How it is done:
FIG. 3 illustrates a graph indicating a relationship between temperature and weigh of glycerin and diglycerin.
In addition, it is preferable that the aforementioned chemicals having only a function as a binder is thermally decomposed in carbon dioxide and water when the molded body of the graphite particles is calcinated at 250-350° C. temperature, then such carbon dioxide and water evaporates into the air, in other word, no residue remains due to the thermal decomposition reaction. In such point of view, it is considered that glycerin and diglycerin as glycerin derivative being thermally decomposed at below 350° C. and having a predetermined viscosity are preferable chemicals. Viscosity of the glycerin is 1500 mPa.s at 20° C., and the thermal decomposition starts at 150° C. and finishes at 250° C. Viscosity of the diglycerin is 120 mPa.s at 20° C., and the thermal decomposition starts at 250° C. and finishes at 320° C. In response to an appropriate thickness of the coating film, glycerin or diglycerin can be diluted with methanol and mixed into the solution of carboxylic acid copper. FIG. 3 indicates relationships between temperature and weight of glycerin and diglycerin. Structure 1 indicates a molecular structure of glycerin, and structure 2 indicates a molecular structure of diglycerin. [drawing 1]

The nature of series [6]: Solubility of carboxylic acid copper in organic solvents. The series is classed as physicochemical.
A short description of series [7]: Solubility of each carboxylic acid in 1-butanol. The series is classed as physicochemical. The conditions noted are these: 20° C.
Series [8] can be described thus: Solubility of each carboxylic acid in 1-propanol. The series is classed as physicochemical. The conditions noted are these: 20° C.

Like-named read-outs stand apart in the source and are kept apart here.

In series [1] (20° C.), `Cc1ccccc1C(=O)O` [0-toluic acid] yielded a solubility in methanol of 20 wt % dissolved at 20 °C.
Consider `CC(=O)CC(=O)O` [acetoacetic acid], for which the solubility in water in series [2] (20° C.) worked out at 20 wt % dissolved at 20 °C. Moreover, the solubility in methanol in series [1] (20° C.) came to 20 wt % dissolved at 20 °C.
In turn, `C=CCC(C(=O)O)C(=O)O` [allylic malonic acid] had a solubility in water in series [2] (20° C.) of 20 wt % dissolved at 20 °C. This compound also came in with a solubility in methanol in series [1] (20° C.) of 20 wt % dissolved at 20 °C.
`COc1ccc(C(=O)O)cc1` [anisic acid] gave a solubility in methanol in series [1] (20° C.) of 20 wt % dissolved at 20 °C.
Still for that read-out and setting: next, `O=C(O)CCCCCCCC(=O)O` [azelaic acid]: 20 wt % dissolved at 20 °C.
In the case of `[Cl][Cu][Cl]` [copper chloride, cupric chloride], the “Solubility of copper chloride” value in series [3] (solvent 1-butanol) is 15.4 g dissolved in saturated solution 100 g at 20 °C; in series [3] (solvent 1-propanol) it was 19.7 g dissolved in saturated solution 100 g at 20 °C; in series [3] (solvent methanol), 37 g dissolved in saturated solution 100 g at 20 °C; in series [3] (solvent water), 42.3 g dissolved in saturated solution 100 g at 20 °C.
Take `OCC(O)COCC(O)CO` (stereo not drawn) [diglycerin]: the Viscosity in series [4] is reported as 120 mPa.s. Besides, the “thermal decomposition finishes at (perfectly decomposed into CO2 and H2O)” value in series [5] worked out at 320 °C.
For the compound `O=C(O)C(O)c1ccccc1` (stereo not drawn) [dl mandelic acid], the solubility in water in series [2] (30° C.) is reported as 37.5 g is dissolved in water 100 g.
With `CCCCCCCCCCCC(=O)O.[Cu]` [dodecanoic acid copper], the “solubility in the methanol compared with butanoic acid copper” value in series [6] was “lower”.
For the compound `CCCCCCCCCCCC(=O)O` [dodecanoic acid], the “solubility in 1-butanol” value in series [7] was 83 g is dissolved in solvent 100 g. Further, the solubility in methanol in series [1] (20° C.) is on record as 120 g is dissolved in g is dissolved in methanol 100 g.
On to `O=C(O)CCCC(=O)O` [glutaric acid], for which, in series [2] (30° C.), the solubility in water is 63 g is dissolved in saturated g is dissolved in saturated solution 100 g. The same compound registered a solubility in methanol in series [1] (20° C.) of 20 wt % dissolved at 20 °C.
Regarding `OCC(O)CO` [glycerin], the Viscosity in series [4] came to 1500 mPa.s; in series [4] (undiluted), 1500 centipoises. The “thermal decomposition finishes at (perfectly decomposed into CO2 and H2O)” value in series [5] is 250 °C.
In the case of `O=C(O)c1cccc(C(=O)O)c1` [isophthalic acid], the “solubility in methanol (Max)” value in series [1] was “Max 1.7 g is dissolved in g is dissolved in methanol 100 g”.
The compound `CC(=O)CCC(=O)O` [levulinic acid] had a solubility in water in series [2] (20° C.) of 20 wt % dissolved at 20 °C. Also, the solubility in methanol in series [1] (20° C.) was 20 wt % dissolved at 20 °C.
Consider `O=C(O)/C=C\C(=O)O` [maleic acid], for which, in series [2] (30° C.), the solubility in water is listed as 88 g is dissolved in water 100 g at. Besides, in series [1] (30° C.), the solubility in methanol was 70 g is dissolved in g is dissolved in methanol 100 g.
With `O=C(O)CC(=O)O` [malonic acid], the solubility in water in series [2] (30° C.) is 63 g is dissolved in saturated g is dissolved in saturated solution 100 g.
Take `O=C(O)c1ccc(C(=O)O)c(C(=O)O)c1C(=O)O` [mellophanic acid]: in series [2] (20° C.), the solubility in water is 20 wt % dissolved at 20 °C.
For the compound `C=C(C)C(=O)O` [methacrylic acid], in series [2], the “solubility in water” value is “Dissolved at arbitrary ratio”.
Regarding `CCCCCCCCCCCCCC(=O)O` [myristic acid], the “solubility in 1-butanol” value in series [7] is given as 28.7 g is dissolved in solvent 100 g.
As for `O=C(O)c1ccccc1C(=O)O` [phthalic acid], the “solubility in methanol (Max)” value in series [1] is on record as “Max 16.4 g is dissolved in g is dissolved in methanol 100 g”. For the same compound, the “solubility in 1-propanol” value in series [8] was 4.3 g is dissolved in saturated g is dissolved in saturated solution 100 cc.
As for `O=C(O)CCCCCC(=O)O` [pimelic acid], the solubility in methanol in series [1] (20° C.) is 20 wt % dissolved at 20 °C.
As for `O=C(O)c1ccccc1O` [salicylic acid], the “solubility in 1-propanol” value in series [8] was 22.3 g is dissolved in saturated g is dissolved in saturated solution 100 cc.
As to `O=C(O)CCCCCCC(=O)O` [suberic acid], in series [1] (20° C.), the solubility in methanol stood at 20 wt % dissolved at 20 °C.
Turning to `O=C(O)c1ccc(C(=O)O)cc1` [terephthalic acid], the “solubility in methanol (Max)” value in series [1] was “Max 16.9 g is dissolved in g is dissolved in methanol 100 g”. The “solubility in 1-propanol” value in series [8] is recorded as 4.4 g is dissolved in saturated g is dissolved in saturated solution 100 cc.
Consider `O=C(O)c1cc(C(=O)O)cc(C(=O)O)c1` [trimesic acid], for which the solubility in methanol in series [1] (20° C.) was determined as 20 wt % dissolved at 20 °C.
